Test results published in ChEMBL document CHEMBL5465560, “Selectivity Literature for EUbOPEN Chemogenomic Library” (2024).

Legend:
[1] = molecular target: Serine/threonine-protein kinase NIM1 (Homo sapiens, UniProt Q8IY84); test: Selectivity interaction (KinomeScan (DiscoverX)) EUB0001049a NIM1K; conditions: at 1 µM
[2] = Selectivity interaction (KinomeScan (DiscoverX)) EUB0000666a CDPK1; conditions: at 10 µM
[3] = molecular target: Mitogen-activated protein kinase 8 (Homo sapiens, UniProt P45983); test: Selectivity interaction (Enyzmatic assay) EUB0000601a MAPK8
Mitogen-activated protein kinase 8, sequence (P45983 whole entry): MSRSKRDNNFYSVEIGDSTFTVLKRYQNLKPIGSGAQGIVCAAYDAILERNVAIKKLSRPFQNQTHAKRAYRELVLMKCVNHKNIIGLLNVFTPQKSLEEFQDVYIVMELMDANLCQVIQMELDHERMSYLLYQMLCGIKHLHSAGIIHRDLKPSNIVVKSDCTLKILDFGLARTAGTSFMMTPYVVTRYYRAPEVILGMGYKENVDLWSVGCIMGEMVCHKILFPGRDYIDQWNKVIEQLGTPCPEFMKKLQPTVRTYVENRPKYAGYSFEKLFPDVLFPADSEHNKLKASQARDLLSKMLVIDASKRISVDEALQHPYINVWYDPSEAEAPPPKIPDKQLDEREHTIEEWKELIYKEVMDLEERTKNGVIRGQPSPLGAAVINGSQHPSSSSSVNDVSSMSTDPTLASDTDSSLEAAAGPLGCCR

[4] = molecular target: Ribosomal protein S6 kinase alpha-2 (Homo sapiens) (UniProt Q15349); test: Selectivity interaction (KinomeScan (DiscoverX)) EUB0001079a RPS6KA2; conditions: at 1 µM
Ribosomal protein S6 kinase alpha-2 (Homo sapiens), sequence (Q15349 whole entry): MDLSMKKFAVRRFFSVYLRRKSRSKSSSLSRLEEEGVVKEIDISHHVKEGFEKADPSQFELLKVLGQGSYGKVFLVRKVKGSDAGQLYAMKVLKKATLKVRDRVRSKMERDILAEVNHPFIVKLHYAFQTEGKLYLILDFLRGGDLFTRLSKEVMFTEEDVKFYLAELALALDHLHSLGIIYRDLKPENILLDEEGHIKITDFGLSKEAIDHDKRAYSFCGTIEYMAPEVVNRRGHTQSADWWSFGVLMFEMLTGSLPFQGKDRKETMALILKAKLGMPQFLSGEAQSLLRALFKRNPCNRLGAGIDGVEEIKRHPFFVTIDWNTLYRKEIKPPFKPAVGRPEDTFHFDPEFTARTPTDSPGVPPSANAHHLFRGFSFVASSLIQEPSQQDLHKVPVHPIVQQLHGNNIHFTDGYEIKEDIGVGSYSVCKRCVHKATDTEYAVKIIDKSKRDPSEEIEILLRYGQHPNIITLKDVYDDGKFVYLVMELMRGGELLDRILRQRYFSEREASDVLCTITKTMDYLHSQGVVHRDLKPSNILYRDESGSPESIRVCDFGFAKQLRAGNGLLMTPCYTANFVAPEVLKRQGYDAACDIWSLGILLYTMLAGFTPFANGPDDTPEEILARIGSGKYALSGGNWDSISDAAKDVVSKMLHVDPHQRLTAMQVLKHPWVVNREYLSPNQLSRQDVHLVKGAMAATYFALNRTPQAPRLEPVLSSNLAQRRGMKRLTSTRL

[5] = molecular target: T1, Ephrin type-B receptor 4 (Homo sapiens) (UniProt P54760); test: Selectivity interaction (KinomeScan (DiscoverX)) EUB0000092b EPHB4; conditions: at 10 µM
T1 sequence (whole entry): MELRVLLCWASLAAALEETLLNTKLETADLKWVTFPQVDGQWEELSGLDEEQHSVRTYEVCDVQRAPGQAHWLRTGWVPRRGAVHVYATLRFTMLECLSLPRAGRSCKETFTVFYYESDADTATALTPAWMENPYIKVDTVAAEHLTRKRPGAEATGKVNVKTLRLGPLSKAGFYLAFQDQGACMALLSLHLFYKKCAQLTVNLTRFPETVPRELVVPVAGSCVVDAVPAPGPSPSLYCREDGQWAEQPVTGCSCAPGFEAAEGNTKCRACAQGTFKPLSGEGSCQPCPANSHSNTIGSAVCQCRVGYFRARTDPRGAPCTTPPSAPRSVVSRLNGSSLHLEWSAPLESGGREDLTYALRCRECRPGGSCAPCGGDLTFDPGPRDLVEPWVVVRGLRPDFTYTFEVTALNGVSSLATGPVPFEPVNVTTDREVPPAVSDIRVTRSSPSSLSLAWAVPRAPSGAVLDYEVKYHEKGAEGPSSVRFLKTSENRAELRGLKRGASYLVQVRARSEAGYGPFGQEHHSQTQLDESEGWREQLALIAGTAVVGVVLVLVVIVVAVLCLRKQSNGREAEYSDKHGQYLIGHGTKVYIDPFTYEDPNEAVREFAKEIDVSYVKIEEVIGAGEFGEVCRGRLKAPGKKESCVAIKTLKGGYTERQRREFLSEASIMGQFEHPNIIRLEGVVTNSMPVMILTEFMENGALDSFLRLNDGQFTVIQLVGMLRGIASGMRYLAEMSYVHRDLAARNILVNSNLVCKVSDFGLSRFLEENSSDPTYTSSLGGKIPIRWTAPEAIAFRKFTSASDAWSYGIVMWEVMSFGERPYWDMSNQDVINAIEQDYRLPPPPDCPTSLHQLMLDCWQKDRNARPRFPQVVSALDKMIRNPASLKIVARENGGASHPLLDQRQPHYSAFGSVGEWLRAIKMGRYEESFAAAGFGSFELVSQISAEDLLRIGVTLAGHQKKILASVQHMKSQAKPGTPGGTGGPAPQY

[6] = molecular target: T2, Rhodopsin kinase GRK7 (Homo sapiens) (UniProt Q8WTQ7); test: Selectivity interaction (Ambit KINOMEscan and KiNATiv profiling in Jurkat cells) EUB0000090b GRK7; assay type: cell-based; conditions: at 1 µM
T2 sequence (whole entry): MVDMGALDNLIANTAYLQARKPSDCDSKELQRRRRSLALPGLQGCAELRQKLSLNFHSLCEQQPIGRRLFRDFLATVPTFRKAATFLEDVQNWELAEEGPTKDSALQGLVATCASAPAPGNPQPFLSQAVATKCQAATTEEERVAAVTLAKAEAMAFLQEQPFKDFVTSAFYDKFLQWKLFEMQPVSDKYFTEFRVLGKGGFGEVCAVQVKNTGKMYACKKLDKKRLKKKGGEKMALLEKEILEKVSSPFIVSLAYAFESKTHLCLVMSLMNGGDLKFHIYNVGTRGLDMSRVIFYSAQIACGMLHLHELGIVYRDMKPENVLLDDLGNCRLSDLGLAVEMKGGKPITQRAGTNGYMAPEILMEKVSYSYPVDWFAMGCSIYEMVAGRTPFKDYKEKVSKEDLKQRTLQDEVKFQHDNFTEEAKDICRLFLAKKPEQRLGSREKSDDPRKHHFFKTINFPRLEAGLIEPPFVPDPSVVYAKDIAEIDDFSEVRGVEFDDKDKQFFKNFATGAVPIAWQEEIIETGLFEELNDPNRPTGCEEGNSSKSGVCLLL

[7] = molecular target: Tyrosine-protein kinase JAK2 (Homo sapiens, UniProt O60674); test: Selectivity interaction (KinomeScan (DiscoverX)) EUB0000045b JAK2
Tyrosine-protein kinase JAK2, sequence (O60674 whole entry): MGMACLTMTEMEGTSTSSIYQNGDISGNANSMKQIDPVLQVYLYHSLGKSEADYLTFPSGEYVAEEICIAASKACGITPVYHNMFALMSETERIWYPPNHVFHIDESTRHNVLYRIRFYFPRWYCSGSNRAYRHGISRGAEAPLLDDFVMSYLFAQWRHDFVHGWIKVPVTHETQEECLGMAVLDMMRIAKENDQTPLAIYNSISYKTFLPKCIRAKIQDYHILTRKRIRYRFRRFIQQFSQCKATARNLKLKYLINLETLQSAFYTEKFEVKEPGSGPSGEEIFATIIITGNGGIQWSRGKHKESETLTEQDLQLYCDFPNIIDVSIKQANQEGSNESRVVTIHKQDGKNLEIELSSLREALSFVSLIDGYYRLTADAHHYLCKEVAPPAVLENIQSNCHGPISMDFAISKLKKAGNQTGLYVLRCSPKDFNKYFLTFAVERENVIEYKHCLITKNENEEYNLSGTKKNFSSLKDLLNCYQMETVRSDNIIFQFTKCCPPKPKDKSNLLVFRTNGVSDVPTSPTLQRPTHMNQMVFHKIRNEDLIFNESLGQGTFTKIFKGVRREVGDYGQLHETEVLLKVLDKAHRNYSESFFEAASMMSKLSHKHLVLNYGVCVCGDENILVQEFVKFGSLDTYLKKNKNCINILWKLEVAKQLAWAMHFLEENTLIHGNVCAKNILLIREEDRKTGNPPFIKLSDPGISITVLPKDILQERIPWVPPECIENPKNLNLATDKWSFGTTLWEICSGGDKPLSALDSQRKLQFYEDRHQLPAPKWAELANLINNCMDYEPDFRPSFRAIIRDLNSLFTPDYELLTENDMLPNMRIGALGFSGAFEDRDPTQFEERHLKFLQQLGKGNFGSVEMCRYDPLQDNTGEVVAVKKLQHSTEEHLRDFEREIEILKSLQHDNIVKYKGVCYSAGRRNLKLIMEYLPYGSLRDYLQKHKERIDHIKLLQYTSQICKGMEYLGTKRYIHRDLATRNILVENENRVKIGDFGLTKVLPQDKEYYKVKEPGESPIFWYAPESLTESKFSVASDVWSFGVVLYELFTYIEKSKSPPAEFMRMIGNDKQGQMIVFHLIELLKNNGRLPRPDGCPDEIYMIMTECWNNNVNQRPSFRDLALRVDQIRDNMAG

[8] = test system: Tyrosine-protein kinase ABL1 (Homo sapiens), P00519 [H396P]; conditions: at 10 µM
[9] = molecular target: ALK tyrosine kinase receptor (Homo sapiens, UniProt Q9UM73); conditions: at 10 µM
ALK tyrosine kinase receptor, sequence (Q9UM73 19-1620 limits assumed): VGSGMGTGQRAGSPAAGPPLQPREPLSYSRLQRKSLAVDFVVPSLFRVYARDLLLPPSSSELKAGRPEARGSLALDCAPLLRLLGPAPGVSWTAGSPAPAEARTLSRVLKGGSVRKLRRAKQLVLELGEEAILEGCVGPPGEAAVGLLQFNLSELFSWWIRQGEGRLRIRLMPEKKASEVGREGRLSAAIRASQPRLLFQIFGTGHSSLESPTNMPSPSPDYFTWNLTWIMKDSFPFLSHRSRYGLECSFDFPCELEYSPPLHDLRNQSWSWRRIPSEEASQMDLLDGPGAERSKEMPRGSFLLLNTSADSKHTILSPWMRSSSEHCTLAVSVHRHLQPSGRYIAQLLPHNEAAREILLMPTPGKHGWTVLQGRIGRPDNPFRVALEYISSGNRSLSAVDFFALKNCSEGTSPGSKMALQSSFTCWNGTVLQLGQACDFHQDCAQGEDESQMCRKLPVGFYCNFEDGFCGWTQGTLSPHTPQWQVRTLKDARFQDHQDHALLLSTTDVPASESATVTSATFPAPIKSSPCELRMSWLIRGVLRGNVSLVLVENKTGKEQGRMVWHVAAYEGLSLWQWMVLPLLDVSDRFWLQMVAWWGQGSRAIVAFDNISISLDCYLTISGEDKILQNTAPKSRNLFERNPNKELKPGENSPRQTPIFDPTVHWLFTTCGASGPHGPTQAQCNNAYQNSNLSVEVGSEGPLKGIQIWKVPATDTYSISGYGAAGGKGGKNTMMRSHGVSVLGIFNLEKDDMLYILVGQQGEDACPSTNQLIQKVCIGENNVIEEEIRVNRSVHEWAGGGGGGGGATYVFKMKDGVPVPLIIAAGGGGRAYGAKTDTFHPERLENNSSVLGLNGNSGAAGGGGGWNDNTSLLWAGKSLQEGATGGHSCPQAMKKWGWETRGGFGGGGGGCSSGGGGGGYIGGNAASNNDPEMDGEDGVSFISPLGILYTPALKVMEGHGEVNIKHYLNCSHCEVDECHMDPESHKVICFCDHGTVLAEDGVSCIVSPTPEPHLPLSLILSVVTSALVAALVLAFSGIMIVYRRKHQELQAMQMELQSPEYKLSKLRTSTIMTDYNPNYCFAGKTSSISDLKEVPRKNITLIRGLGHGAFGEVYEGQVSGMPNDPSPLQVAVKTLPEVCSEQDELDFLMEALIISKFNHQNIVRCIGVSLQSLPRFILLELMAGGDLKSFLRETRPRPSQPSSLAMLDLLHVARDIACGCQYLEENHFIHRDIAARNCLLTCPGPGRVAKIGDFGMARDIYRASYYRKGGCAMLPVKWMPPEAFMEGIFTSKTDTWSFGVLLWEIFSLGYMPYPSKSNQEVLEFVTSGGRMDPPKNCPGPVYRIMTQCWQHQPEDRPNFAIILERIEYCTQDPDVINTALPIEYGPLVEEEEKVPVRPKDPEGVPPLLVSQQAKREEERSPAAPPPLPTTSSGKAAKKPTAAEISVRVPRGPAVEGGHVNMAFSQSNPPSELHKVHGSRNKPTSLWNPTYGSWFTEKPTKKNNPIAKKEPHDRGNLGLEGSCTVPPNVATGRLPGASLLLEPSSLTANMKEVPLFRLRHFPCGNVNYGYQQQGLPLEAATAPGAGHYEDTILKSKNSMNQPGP

[10] = molecular target: Mitogen-activated protein kinase 1 (Homo sapiens, UniProt P28482); test: Selectivity interaction (KinomeScan (DiscoverX)) EUB0001619a MAPK1; conditions: at 1 µM
[11] = molecular target: Serine/threonine-protein kinase PAK 3 (Homo sapiens) (UniProt O75914); test: Selectivity interaction (KinomeScan (DiscoverX)) EUB0001619a PAK3; conditions: at 1 µM
[12] = molecular target: Death-associated protein kinase 3 (Homo sapiens) (UniProt O43293); test: Selectivity interaction (KinomeScan (DiscoverX)) EUB0001619a DAPK3; conditions: at 1 µM
[13] = molecular target: Ribosomal protein S6 kinase alpha-4 (Homo sapiens) (UniProt O75676); test: Selectivity interaction (Upstate Kinase Profiler service (Millipore)) EUB0000056c RPS6KA4; conditions: at 1 µM
[14] = molecular target: Ribosomal protein S6 kinase alpha-6 (Homo sapiens, UniProt Q9UK32); test: Selectivity interaction (KinomeScan (DiscoverX)) EUB0000607a RPS6KA6; conditions: at 10 µM
[15] = molecular target: Tyrosine-protein kinase CSK (Homo sapiens) (UniProt P41240); test: Selectivity interaction (SelectScreen profiling (Invitrogen)) EUB0000607a CSK; conditions: at 2 µM
[16] = molecular target: G protein-coupled receptor kinase 4 (Homo sapiens) (UniProt P32298); test: Selectivity interaction (Kinase panel (Z-LYTE Assay)) EUB0001632a GRK4; conditions: at 10 µM
G protein-coupled receptor kinase 4 (Homo sapiens), sequence (P32298 whole entry, looked up): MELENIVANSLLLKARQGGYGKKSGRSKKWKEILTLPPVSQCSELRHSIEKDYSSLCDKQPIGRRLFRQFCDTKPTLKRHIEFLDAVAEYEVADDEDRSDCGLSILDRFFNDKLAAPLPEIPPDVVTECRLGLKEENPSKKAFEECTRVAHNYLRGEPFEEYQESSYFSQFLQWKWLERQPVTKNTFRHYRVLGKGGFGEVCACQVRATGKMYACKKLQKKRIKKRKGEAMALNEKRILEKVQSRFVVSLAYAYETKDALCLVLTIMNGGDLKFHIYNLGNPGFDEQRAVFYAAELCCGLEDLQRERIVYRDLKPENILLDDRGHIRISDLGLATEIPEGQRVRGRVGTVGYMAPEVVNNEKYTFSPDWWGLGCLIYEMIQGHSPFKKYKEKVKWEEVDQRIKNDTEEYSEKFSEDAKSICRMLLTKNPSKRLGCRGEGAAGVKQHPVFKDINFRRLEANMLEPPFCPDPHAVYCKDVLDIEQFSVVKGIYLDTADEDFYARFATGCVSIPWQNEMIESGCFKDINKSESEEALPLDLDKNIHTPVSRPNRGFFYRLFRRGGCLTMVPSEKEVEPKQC

Serine/threonine-protein kinase NIM1, sequence (Q8IY84 whole entry): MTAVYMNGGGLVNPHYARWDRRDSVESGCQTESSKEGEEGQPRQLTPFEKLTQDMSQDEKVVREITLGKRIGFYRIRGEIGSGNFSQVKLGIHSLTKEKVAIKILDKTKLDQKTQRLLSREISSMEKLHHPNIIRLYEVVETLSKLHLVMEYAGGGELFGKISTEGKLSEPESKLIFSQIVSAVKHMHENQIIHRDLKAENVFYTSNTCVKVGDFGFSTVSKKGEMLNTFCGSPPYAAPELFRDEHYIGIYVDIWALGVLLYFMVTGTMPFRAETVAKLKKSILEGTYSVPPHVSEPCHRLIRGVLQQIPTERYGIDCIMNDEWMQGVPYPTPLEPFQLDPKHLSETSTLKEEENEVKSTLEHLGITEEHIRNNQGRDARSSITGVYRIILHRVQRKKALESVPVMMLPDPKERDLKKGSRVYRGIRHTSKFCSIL

Structure (SMILES): COc1cc(Nc2nc(C)cc(-c3cnn4nc(OC)ccc34)n2)cc(C(F)(F)F)c1
- % of control [1]: 94%

Structure (SMILES): O=C(NOC[C@H](O)CO)c1ccc(F)c(F)c1Nc1ccc(I)cc1F
- % of control [2]: 78%

Structure (SMILES): CCc1cc(Nc2nccc(-c3c(-c4ccc(OC)c(C(=O)Nc5c(F)cccc5F)c4)nc4ccccn34)n2)c(OC)cc1N1CCC(N2CCN(S(C)(=O)=O)CC2)CC1
- IC50 [3]: > 10 µM

Structure (SMILES): Nc1cnc(N2CCc3cc(S(=O)(=O)Nc4c(F)cc(Cl)cc4F)cc(N4CCCC4=O)c32)nc1 [TP-020n]
- % of control [4]: 88%

Structure (SMILES): CCC(=O)N1CCN(c2ccc(-n3c(=O)ccc4cnc5ccc(-c6cnc7ccccc7c6)cc5c43)cc2C(F)(F)F)CC1
- % of control [5]: 85%

Structure (SMILES): CN(C)C/C=C/C(=O)Nc1ccc(C(=O)N2CCCC(Nc3ncc(Cl)c(-c4c[nH]c5ccccc45)n3)C2)cc1 (configuration not stated)
- % of control [6]: 70%

Structure (SMILES): C=CC(=O)Nc1cc(-n2c(=O)ccc3cnc4ccc(-c5ccc(NS(C)(=O)=O)cc5)cc4c32)ccc1C
- % of control ([7]; at 1 µM): 86%
- % of control ([7]; at 10 µM): 100%

Structure (SMILES): Cc1cc([C@@H](C)Nc2ccccc2C(=O)O)c2nc(N3CCOCC3)cc(=O)n2c1 [AZD-6482]
- % of control [8]: 61%
- % of control [9]: 100%

Structure (SMILES): N#Cc1cccc(-c2c[nH]c3ncnc(N4CCOCC4)c23)c1
- % of control [10]: 98%
- % of control [11]: 74%
- % of control [12]: 100%

Structure (SMILES): Cc1ccc(-c2ccc3c(ccc4sc5c(c43)NC[C@@H](C)NC5=O)n2)cn1
- % of inhibition [13]: -19%

Structure (SMILES): CNC(=O)Nc1ccc(-c2nc(N3CC4CCC(C3)O4)c3cnn(C4CCC5(CC4)OCCO5)c3n2)cc1
- % of control [14]: 84%
- % of inhibition [15]: -1%

Structure (SMILES): Cn1cc(-n2cnc3c(NCc4nc5cc(Cl)c(Cl)cc5[nH]4)nc(N4CCOCC4)nc32)cn1
- % of control [16]: 0.672%
